The results in this text go back to ChEMBL document CHEMBL3507680, “University of Dundee, Gates Library screen for HepG2 cell viability”.

The nature of this series: Human HepG2 cell viability assay in 384 well format. The series is classed as toxicity, cell-based. On the set-up: dose 125 nL, time 70.5 hour; cytotoxicity at 70.5 h: concentration not given beside the values. To be noted: HepG2 cells, read-out: Inhibition.

Take `FC(F)(F)c1cc(C2CCCN(Cc3cccnc3)C2)n[nH]1` (stereo not drawn): the cytotoxicity at 70.5 h was found to be 9.85%.
Turning to `Cc1ccc(CCCC(=O)N2CC(=O)Nc3cccnc32)s1`, the cytotoxicity at 70.5 h was -11.1%.
Take `CN(Cc1csc2ccccc12)C(=O)NC1CCS(=O)(=O)C1` (stereo not drawn): the cytotoxicity at 70.5 h is -7.9%.
As for `CC(NCc1nnc2n1CCCC2)c1nc(-c2cccs2)no1` (stereo not drawn), the cytotoxicity at 70.5 h came out at 2.78%.
As for `Cc1noc(CCCC(=O)N2CSCC2C(=O)NCC2CC2)n1` (stereo not drawn), the cytotoxicity at 70.5 h was -7.96%.
For the compound `FC(F)(F)c1cc(C2CCCN(Cc3ccncc3)C2)n[nH]1` (stereo not drawn), the cytotoxicity at 70.5 h was -1.55%.
Next, `Cc1ncc(CNC(CCO)C2CCCCC2)s1` (stereo not drawn): 1.31%; `Cc1ccc(C)c(S(=O)(=O)CCN2CCCC2Cn2cccn2)c1` (stereo not drawn): -7.12%; `CCc1nnc2n1CCN(C(=O)CCOc1ccc(C)cc1C)C2`: -4.53%.
Next, `CCc1nnc2n1CCN(C(=O)CCOc1cc(C)ccc1C)C2`: -5.39%; `Cc1nc(C(=O)N(CC2CCCO2)c2ccncc2)cs1` (stereo not drawn): -16.6%.
On to `CC1CCCN(C(=O)c2ccc(N(C)Cc3cnn(C)c3)nc2)C1` (stereo not drawn), for which the cytotoxicity at 70.5 h is 20.1%.
With `CC1CN(c2ccc(NC(=O)Cn3cccn3)cc2)CCO1` (stereo not drawn), the cytotoxicity at 70.5 h was -5.08%.
Consider `CC(C)c1n[nH]c(C2CN(C(=O)COCC(F)(F)F)CCO2)n1` (stereo not drawn), for which the cytotoxicity at 70.5 h was -12.9%.
Take `COc1ccc(CCCC(=O)NCc2c(C)noc2C)cc1F`: the cytotoxicity at 70.5 h was 20%.
On to `O=C(NCCNC(=O)c1ccc(Cl)cc1)NCCn1cccc1`, for which the cytotoxicity at 70.5 h is -4.35%.
For the compound `Cc1c(CN2CCCC(C(=O)Nc3ccccc3)C2)cc(C#N)n1C` (stereo not drawn), the cytotoxicity at 70.5 h was -2.58%.
For the compound `CCOc1cc(CNCC2CN(C3CC3)CCO2)ccc1OC` (stereo not drawn), the cytotoxicity at 70.5 h is -8.19%.
Take `COc1ccc(CNCC2CN(C3CC3)CCO2)cc1F` (stereo not drawn): the cytotoxicity at 70.5 h is -8.08%.
On to `CN(C)C1CCCN(C(=O)NCCc2cc(F)ccc2F)C1` (stereo not drawn), for which the cytotoxicity at 70.5 h worked out at 23.5%.
As for `CC(CC(=O)N1CCCN(Cc2nccn2C)CC1)n1cccc1` (stereo not drawn), the cytotoxicity at 70.5 h was -12.4%.
Consider `N#Cc1cccnc1N1CCC(OCc2ccccc2)CC1`, for which the cytotoxicity at 70.5 h was -8.71%.
Next, `Cc1ccc(CCC(=O)N2CCn3c(nnc3C(C)C)C2)cc1Cl`: 24.9%.
With `Cn1cnnc1C1CCN(C(=O)CCCOCc2ccccc2)CC1`, the cytotoxicity at 70.5 h was -11.3%.
For `CC(C)c1n[nH]c(C2CN(C(=O)COc3ccc(F)cc3)CCO2)n1` (stereo not drawn), the cytotoxicity at 70.5 h is -8.14%.
Next, `Cc1ccc(C)c(S(=O)(=O)CCN2CCCC2Cn2cncn2)c1` (stereo not drawn): -14.3%; `CCc1nc(CN2CCCC(N(C)CCn3cncn3)C2)no1` (stereo not drawn): -9.76%.
Next, `CCc1nc(CN2CCCC(NCCn3cncn3)C2)no1` (stereo not drawn): -8.1%.
Consider `O=C(CNC(=O)c1ccoc1)NCCOc1ccc2c(c1)CCC2`, for which the cytotoxicity at 70.5 h is -6.52%.
Regarding `Cc1cc(N2CCc3c(ncn3C3CC3)C2)nc(N)n1`, the cytotoxicity at 70.5 h is -7.99%.
`Cc1c(Cl)cccc1NC(=O)CCNc1ccc(C#N)cn1`: the cytotoxicity at 70.5 h is -6.94%.
For `OC(CN1CCN(CC2CC2)CC1)c1ccc(Br)cc1` (stereo not drawn), the cytotoxicity at 70.5 h is -2.6%.
Turning to `CS(=O)(=O)NC1CCN(C(=O)c2ccc(Br)o2)C1` (stereo not drawn), the cytotoxicity at 70.5 h was -5.52%.
For the compound `CS(=O)(=O)NC1CCN(C(=O)c2ccc(Br)cc2)C1` (stereo not drawn), the cytotoxicity at 70.5 h was -7.16%.
As for `COc1cc(Cl)c(C)cc1NC(=O)CCNc1ccc(C#N)cn1`, the cytotoxicity at 70.5 h came to 9.88%.
`Cc1nsc(N2CCN(CC(=O)NCc3cccnc3)CC2)n1`: the cytotoxicity at 70.5 h is -0.83%.
Regarding `O=C(CCc1ccco1)NCC1CCCN1c1cccnn1` (stereo not drawn), the cytotoxicity at 70.5 h was -2.58%.
Regarding `Cn1cnnc1CNC(=O)Nc1ccc(OC2CCC2)c(F)c1`, the cytotoxicity at 70.5 h was -4.19%.
Next, `CSc1ccc(NC(=O)NCc2nncn2C2CC2)cc1F`: 2.39%; `Cc1csc(CCCNC(=O)NC2CC(=O)N(C(C)(C)C)C2)n1` (stereo not drawn): -2.05%; `Cc1nc(C)c(CCNC(=O)NC2CC(=O)N(C(C)(C)C)C2)s1` (stereo not drawn): -5.16%.
`O=C(c1ccc2nncn2c1)N1CCCC1c1noc(C2CC2)n1` (stereo not drawn): the cytotoxicity at 70.5 h was -7.81%.
Regarding `c1cnnc(N2CCCC2CNCCc2cccs2)c1` (stereo not drawn), the cytotoxicity at 70.5 h is -7.61%.
Take `COC(=O)N1CCC(Nc2cccc(F)c2C(C)=O)C1` (stereo not drawn): the cytotoxicity at 70.5 h is -9.32%.
As to `CCC(C)NC(=O)c1ccc(CNC(=O)COC)cc1` (stereo not drawn), the cytotoxicity at 70.5 h is -9.97%.
Next, `Cc1ccc(C(=O)NCCNC(=O)c2cncnc2C(C)C)cc1F`: -7.29%; `CC(C)(C)OC(=O)NCC1CCN(C(=O)c2ccccc2O)CC1`: -7.62%.
For `Cc1c(F)cc(C(=O)NCC(F)(F)F)cc1NCC(=O)N(C)C`, the cytotoxicity at 70.5 h came to 10.3%.
For `COC(=O)CCNC(=O)c1ccc(NC(=O)N(C)CC(C)C)cc1`, the cytotoxicity at 70.5 h amounted to 12.2%.
`CC(C)C(=O)NCc1ccccc1NS(=O)(=O)c1ccccc1`: the cytotoxicity at 70.5 h was -3.22%.
For `COc1ccc(OC)c(C(O)CN2CCN(C3CCCC3)CC2)c1` (stereo not drawn), the cytotoxicity at 70.5 h was -7.66%.
As to `COC(=O)C1CN(CC(=O)Nc2cccc(OC)c2)c2ccccc21` (stereo not drawn), the cytotoxicity at 70.5 h was -9.39%.
Consider `COC(=O)N1CCC(Nc2cccc(F)c2C#N)CC1`, for which the cytotoxicity at 70.5 h was -3.28%.
Regarding `CC(=O)c1c(F)cccc1NC1CCN(C(=O)CC(C)C)CC1`, the cytotoxicity at 70.5 h came to 12.4%.
Turning to `Cc1ccc(O)c(C(=O)N2CCC(CNC(=O)OC(C)(C)C)C2)c1` (stereo not drawn), the cytotoxicity at 70.5 h was -7.45%.
For `CN(CCc1ccncc1)Cc1nccn1Cc1ccccc1`, the cytotoxicity at 70.5 h worked out at 8.96%.
For the compound `CCCNC(=O)NCc1ccccc1NS(=O)(=O)c1ccccc1`, the cytotoxicity at 70.5 h is -0.797%.
Next, `CC(=O)c1c(F)cccc1NC1CCN(S(=O)(=O)C2CC2)CC1`: -6.69%; `O=C(Nc1cnc(C2CC2)nc1)N1CCCC1`: -1.33%.
Regarding `O=C(Nc1cnc(C2CC2)nc1)N1CCC(CN2CCCC2)C1` (stereo not drawn), the cytotoxicity at 70.5 h was determined as 17.5%.
For `CCC(C)(NCC(=O)OC)c1nccs1` (stereo not drawn), the cytotoxicity at 70.5 h was -2.64%.
With `CCC(C)(NCC(N)=O)c1nccs1` (stereo not drawn), the cytotoxicity at 70.5 h is -4.9%.
Turning to `CCNC(=O)NC(=O)CNC(C)(CC)c1nc(C)cs1` (stereo not drawn), the cytotoxicity at 70.5 h was -4.63%.
Turning to `COCc1ccccc1C(=O)N1CCC(CNC(=O)OC(C)(C)C)C1` (stereo not drawn), the cytotoxicity at 70.5 h is -6.54%.
Take `CC(C)c1nccn1C1CCCN(C(=O)c2ccc(=O)n(C)n2)C1` (stereo not drawn): the cytotoxicity at 70.5 h was -8.03%.
In the case of `CCNS(=O)(=O)C1CCN(C(=O)c2ccc(CC)o2)C1` (stereo not drawn), the cytotoxicity at 70.5 h was -9.53%.
Next, `Cc1ccc(CNC(=O)N2CCOCC2C2CC2)cc1F` (stereo not drawn): -8.34%; `NC(=O)CN1CCC(NC2CSCCc3ccccc32)CC1` (stereo not drawn): 5.08%.
As to `CS(=O)(=O)NCCNC(=O)C1(c2ccc(F)cc2)CC1`, the cytotoxicity at 70.5 h was -0.0991%.
Turning to `O=S(=O)(NCCN1CCOCC1)c1cncc(Cl)c1`, the cytotoxicity at 70.5 h is 4.99%.
Turning to `NC(=O)C1CN(c2ccc3c(Cl)ccnc3c2F)CCO1` (stereo not drawn), the cytotoxicity at 70.5 h is -7.96%.
Consider `COc1ncnc(N)c1CNCCOc1ccccc1Cl`, for which the cytotoxicity at 70.5 h was -5.86%.
Next, `C[C@@H]1CN(c2ccc3c(Cl)ccnc3c2F)CC(C(N)=O)O1` (stereo partly drawn): -4.78%; `CS(=O)(=O)CCOCCNc1ccc(C(F)(F)F)cc1C#N`: -3.49%; `CCOc1cccc(COC(=O)c2ccc(F)cn2)n1`: -2.51%.
Next, `CC1CCN(C)c2ccccc2N1C(=O)c1ccn(C)c(=O)c1` (stereo not drawn): -6.59%; `CCc1cc(C)nc(N2CCN(C(C)c3nc(C)no3)CC2)n1` (stereo not drawn): -7.01%; `CN(C)c1ccnc(N2CCC(NCCOc3ccccc3)CC2)n1`: 19.6%.
With `Cc1cccc(C(=O)Nc2cccc3c2CCCC3)n1`, the cytotoxicity at 70.5 h is -1.46%.
Take `CCOC(=O)c1nc(CN2CCN(C(C)C(=O)NC3CC3)CC2)cs1` (stereo not drawn): the cytotoxicity at 70.5 h was -9.09%.
Next, `Cc1ncc2c(n1)CN(C(C(N)=O)c1ccccc1)CC2` (stereo not drawn): -7.87%; `O=S(=O)(CCCS(=O)(=O)c1ccc2c(c1)OCCCO2)c1ccccc1`: -7.8%; `COc1ccc(F)cc1CSCC(=O)N(CCC#N)CCC#N`: -3.2%.
Consider `c1ccc(OCCNC2CCN(c3ncccn3)CC2)cc1`, for which the cytotoxicity at 70.5 h came to 2.01%.
For `CS(=O)(=O)CCCNC(=O)NC1CC(c2cccc(Cl)c2)C1` (stereo not drawn), the cytotoxicity at 70.5 h is -3.19%.
With `COCC(=O)NC1CCCN(c2ccc(C)cc2)C1=O` (stereo not drawn), the cytotoxicity at 70.5 h was -0.459%.
`O=C(Nc1ccccc1OC1CCOC1)c1cc[nH]n1` (stereo not drawn): the cytotoxicity at 70.5 h amounted to 16.6%.
In the case of `O=S1(=O)CCC(N2CCN(c3cc(C(F)(F)F)ccn3)CC2)C1` (stereo not drawn), the cytotoxicity at 70.5 h turned out to be 1.03%.
With `COCCN(C(=O)c1c[nH]c2ncccc12)C1CCCC1`, the cytotoxicity at 70.5 h is 0.976%.
Turning to `Cc1cnn(-c2cccc(N3CCCCC3)n2)c1`, the cytotoxicity at 70.5 h was 15.7%.
Take `COC(=O)c1cnc(C(=O)N(c2ccc(OC)c(F)c2)C(C)C)cn1`: the cytotoxicity at 70.5 h was found to be 0.246%.
Next, `Cc1ccc(O)c(C(=O)N2CCCC2c2nncn2CC(C)C)c1` (stereo not drawn): -0.402%; `Cc1ccc(C(=O)Nc2cccc3c2C(=O)NC3)c(C)n1`: 2.51%; `CCOCc1ccccc1NC(=O)NCC(C)(O)c1cc(C)oc1C` (stereo not drawn): -1.67%.
For the compound `COc1ccc2cc(CN(C)C(C)c3nc(C4CC4)no3)ccc2c1` (stereo not drawn), the cytotoxicity at 70.5 h is -0.253%.
Consider `CC(c1nc(C2CC2)no1)N(C)Cc1ccc(Cl)cc1` (stereo not drawn), for which the cytotoxicity at 70.5 h is -3.08%.
Turning to `CC(c1nc(C2CC2)no1)N(C)Cc1ccc2c(c1)OCCO2` (stereo not drawn), the cytotoxicity at 70.5 h was -0.549%.
Consider `CC(C)Cn1cnnc1C1CCCN1C(=O)c1ccc(F)cc1F` (stereo not drawn), for which the cytotoxicity at 70.5 h is -2.82%.
Turning to `COc1cc(F)ccc1N(C)Cc1ccccn1`, the cytotoxicity at 70.5 h is -1.59%.
Next, `CCNC(=O)CN(CC)C(=O)Cc1csc(C(C)C)n1`: -1.29%; `COc1cccc2c1N(Cc1noc(C3CC3)n1)CCC2`: 39.7%.
Next, `O=C(NCc1ccncc1)N1CCSCC1CCO` (stereo not drawn): 10.5%; `CC(C)(N)c1nc(C(F)F)cc(=O)[nH]1`: -6.3%.
